Here are results for 1 compound from patent US20260232767A1, “INTERLEUKIN-23 RECEPTOR ANTAGONIST PEPTIDES FOR USE IN THE TREATMENT OF PSORIASIS” (Janssen Pharmaceutica NV, priority 2023, published 2026).

In the assay the test system is subjects with moderate-to-severe plaque psoriasis. As to the kind of experiment: DLQI, Example 1. The class given is in vivo, human. The settings on record: each dose group vs placebo; Week 16. From the text:
The Dermatological Life Quality Index (DLQI) is a dermatology-specific health-related quality of life (HRQoL) instrument designed to assess the impact of the disease on a participant's HRQoL. It is a 10-item questionnaire that assesses HRQoL over the past week and in addition to evaluating overall HRQoL, can be used to assess 6 different aspects that may affect quality of life: symptoms and feelings, daily activities, leisure, work or school performance, personal relationships, and treatment. The total score ranges from 0 to 30 with a higher score indicating greater impact on quality of life (QoL).
Efficacy, PK, immunogenicity, biomarker, pharmacogenomic, and safety criteria were measured during the treatment. Subjects were provided with an electronic device to enter patient-reported outcome (PRO) data at each study visit. All visit-specific PRO assessments were conducted/completed before any tests, procedures or other clinical assessments, with the exception of the urine pregnancy test and urinalysis, to prevent influencing subject perceptions.

Turning to `CC(=O)NCCCC[C@@H]1NC(=O)[C@H](Cc2c[nH]c3c(C)cccc23)NC(=O)[C@H]([C@@H](C)O)NC(=O)[C@H](CC(N)=O)NC(=O)[C@@H](NC(C)=O)C(C)(C)SSC(C)(C)[C@@H](C(=O)N[C@@H](Cc2ccc(OCCN)cc2)C(=O)N[C@@H](Cc2ccc3ccccc3c2)C(=O)NC2(C(=O)N[C@@H](CCC(=O)O)C(=O)N[C@@H](CC(N)=O)C(=O)N[C@@H](Cc3cccnc3)C(=O)N(C)CC(N)=O)CCOCC2)NC1=O` [IL-23 receptor antagonist peptide, Ac-[Pen]*-N-T-[W(7-Me)]-[Lys(Ac)]-[Pen]*-Phe[4-(2-aminoethoxy)]-[2-Nal]-[THP]-E-N-[3-Pal]-Sarc-NH2 (*[Pen]-[Pen]* formdisulfidebond)], the “Proportion achieving DLQI score of 0 or 1” value is recorded as “significantly higher”.
